Data as given in PubChem BioAssay (NCI).
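Exposure lasted 48 hours, with cells grown in 96-well plates and compounds tested at five concentrations. GI50 = concentration required for 50% inhibition of growth. TGI is the concentration that stops growth completely.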

Tests used:
Experiment in all cases: DTP human tumour cell line panel, 48 h
UO-31 renal = tested on: UO-31 renal
UACC-257 melanoma = tested on: UACC-257 melanoma
SK-OV-3 ovarian = tested on: SK-OV-3 ovarian
OVCAR-8 ovarian = tested on: OVCAR-8 ovarian
SNB-19 CNS = tested on: SNB-19 CNS
786-0 renal = tested on: 786-0 renal
TK-10 renal = tested on: TK-10 renal
RXF 393 renal = tested on: RXF 393 renal
RPMI-8226 leukemia = tested on: RPMI-8226 leukemia
NCI/ADR-RES ovarian = tested on: NCI/ADR-RES ovarian
SF-295 CNS = tested on: SF-295 CNS
NCI-H23 lung = tested on: NCI-H23 lung
IGROV1 ovarian = tested on: IGROV1 ovarian
SW-620 colon = tested on: SW-620 colon
A498 renal = tested on: A498 renal
HCT-116 colon = tested on: HCT-116 colon
HOP-62 NSCLC = tested on: HOP-62 NSCLC
PC-3 prostate = tested on: PC-3 prostate
SK-MEL-5 melanoma = tested on: SK-MEL-5 melanoma
CCRF-CEM leukemia = tested on: CCRF-CEM leukemia
M14 melanoma = tested on: M14 melanoma
LOX IMVI melanoma = tested on: LOX IMVI melanoma
SR leukemia = tested on: SR leukemia
T-47D breast = tested on: T-47D breast
OVCAR-3 ovarian = tested on: OVCAR-3 ovarian
HL-60(TB) leukemia = tested on: HL-60(TB) leukemia
SF-268 CNS = tested on: SF-268 CNS
NCI-H226 lung = tested on: NCI-H226 lung
SF-539 CNS = tested on: SF-539 CNS
HCT-15 colon = tested on: HCT-15 colon
HT29 colon = tested on: HT29 colon
KM12 colon = tested on: KM12 colon
MALME-3M melanoma = tested on: MALME-3M melanoma
HCC-2998 colon = tested on: HCC-2998 colon
OVCAR-4 ovarian = tested on: OVCAR-4 ovarian
CAKI-1 renal = tested on: CAKI-1 renal
MOLT-4 leukemia = tested on: MOLT-4 leukemia
SK-MEL-2 melanoma = tested on: SK-MEL-2 melanoma
MDA-MB-435 = tested on: MDA-MB-435
SK-MEL-28 melanoma = tested on: SK-MEL-28 melanoma
SN12C renal = tested on: SN12C renal
U251 CNS = tested on: U251 CNS
UACC-62 melanoma = tested on: UACC-62 melanoma
HS 578T breast = tested on: HS 578T breast
K-562 leukemia = tested on: K-562 leukemia
MDA-MB-231 breast = tested on: MDA-MB-231 breast
A549 NSCLC = tested on: A549 NSCLC
BT-549 breast = tested on: BT-549 breast
NCI-H522 lung = tested on: NCI-H522 lung
NCI-H460 lung = tested on: NCI-H460 lung
DU-145 prostate = tested on: DU-145 prostate
OVCAR-5 ovarian = tested on: OVCAR-5 ovarian
ACHN renal = tested on: ACHN renal
SNB-75 CNS = tested on: SNB-75 CNS
COLO 205 colon = tested on: COLO 205 colon
EKVX NSCLC = tested on: EKVX NSCLC
HOP-92 NSCLC = tested on: HOP-92 NSCLC
MCF7 breast = tested on: MCF7 breast

## Fc1ccc(-c2nn3ncccc3c2-c2ccnc(Nc3ccc4c(c3)OCCO4)n2)cc1
UO-31 renal
  GI50: 0.581 µM
  TGI: > 25 µM
UACC-257 melanoma
  GI50: 6.22 µM
  TGI: 19.7 µM
SK-OV-3 ovarian
  GI50: 1.23 µM
  TGI: > 25 µM
OVCAR-8 ovarian
  GI50: 6.15 µM
  TGI: > 25 µM
SNB-19 CNS
  GI50: 19.4 µM
  TGI: > 25 µM
786-0 renal
  GI50: 2.29 µM
  TGI: > 25 µM
TK-10 renal
  GI50: 1.35 µM
  TGI: 9.93 µM
RXF 393 renal
  GI50: 1.07 µM
  TGI: 7.22 µM
RPMI-8226 leukemia
  GI50: 7.85 µM
  TGI: > 25 µM
NCI/ADR-RES ovarian
  GI50: 5.73 µM
  TGI: > 25 µM
SF-295 CNS
  GI50: 6.35 µM
  TGI: 18.6 µM
NCI-H23 lung
  GI50: 6.8 µM
  TGI: > 25 µM
IGROV1 ovarian
  GI50: 0.595 µM
  TGI: > 11.5 µM
SW-620 colon
  GI50: 5.82 µM
  TGI: > 18.9 µM
A498 renal
  GI50: 4.04 µM
  TGI: 17.1 µM
HCT-116 colon
  GI50: 3.05 µM
  TGI: 7.09 µM
HOP-62 NSCLC
  GI50: 15.2 µM
  TGI: > 25 µM
PC-3 prostate
  GI50: 7.32 µM
  TGI: > 25 µM
SK-MEL-5 melanoma
  GI50: 3.99 µM
  TGI: 9.51 µM
CCRF-CEM leukemia
  GI50: 6.22 µM
  TGI: > 25 µM
M14 melanoma
  GI50: 7.81 µM
  TGI: > 25 µM
LOX IMVI melanoma
  GI50: 3.38 µM
  TGI: 13.7 µM
SR leukemia
  GI50: 5.74 µM
  TGI: > 23.2 µM
T-47D breast
  GI50: 3.95 µM
  TGI: 17.9 µM
OVCAR-3 ovarian
  GI50: 2.12 µM
  TGI: > 16.2 µM
HL-60(TB) leukemia
  GI50: 5.01 µM
  TGI: 13.8 µM
SF-268 CNS
  GI50: 7.36 µM
  TGI: > 25 µM
NCI-H226 lung
  GI50: 5.76 µM
  TGI: > 18.9 µM
SF-539 CNS
  GI50: 6.59 µM
  TGI: > 25 µM
HCT-15 colon
  GI50: 3.59 µM
  TGI: 19.4 µM
HT29 colon
  GI50: 0.933 µM
  TGI: > 13.6 µM
KM12 colon
  GI50: 5.32 µM
  TGI: 19.8 µM
MALME-3M melanoma
  GI50: 14.1 µM
  TGI: > 25 µM
HCC-2998 colon
  GI50: 4.81 µM
  TGI: 10.1 µM
OVCAR-4 ovarian
  GI50: 6.89 µM
  TGI: > 25 µM
CAKI-1 renal
  GI50: 0.891 µM
  TGI: > 17.2 µM
MOLT-4 leukemia
  GI50: 4.8 µM
  TGI: > 22.4 µM
SK-MEL-2 melanoma
  GI50: 4.45 µM
  TGI: 9.71 µM
MDA-MB-435
  GI50: 4.9 µM
  TGI: > 21.5 µM
SK-MEL-28 melanoma
  GI50: 8.64 µM
  TGI: > 25 µM
SN12C renal
  GI50: 4.68 µM
  TGI: > 25 µM
U251 CNS
  GI50: 7.72 µM
  TGI: > 25 µM
UACC-62 melanoma
  GI50: 3.97 µM
  TGI: 9.12 µM
HS 578T breast
  GI50: 2.15 µM
  TGI: > 23.2 µM
K-562 leukemia
  GI50: 2.68 µM
  TGI: > 25 µM
MDA-MB-231 breast
  GI50: 1.22 µM
  TGI: 6.01 µM
A549 NSCLC
  GI50: 2.71 µM
  TGI: > 25 µM
BT-549 breast
  GI50: 7.87 µM
  TGI: 24.9 µM
NCI-H522 lung
  GI50: 3.56 µM
  TGI: 10.7 µM
NCI-H460 lung
  GI50: 5.64 µM
  TGI: > 23.3 µM
DU-145 prostate
  GI50: 6.26 µM
  TGI: > 25 µM
OVCAR-5 ovarian
  GI50: 14 µM
  TGI: > 25 µM
ACHN renal
  GI50: 1.16 µM
  TGI: > 25 µM
SNB-75 CNS
  TGI: > 25 µM
COLO 205 colon
  GI50: 1.42 µM
  TGI: > 25 µM
EKVX NSCLC
  GI50: 2.16 µM
  TGI: > 25 µM
HOP-92 NSCLC
  GI50: 2.61 µM
  TGI: 18.8 µM
MCF7 breast
  GI50: 2.79 µM
  TGI: > 25 µM
